One assay has as its system 18S A site model. The experiment in a line: ESI-FTICR mass spectrometric complex detection with 18S A-site model RNA. The class given is binding, eukaryotic. Particulars: mixture of five aminoglycosides, 16S and 18S targets simultaneously. The protocol:
Paromomycin, lividomycin (MW=761.354 Da), sisomicin (MW=447.269 Da), tobramycin (MW=467.2591 Da), and bekanamycin (MW=483.254 Da) were obtained from Sigma (St. Louis, Mo.) and ICN (Costa Mesa, Calif.) and were dissolved to generate 10 mM stock solutions. 2′ methoxy analogs of RNA constructs representing the prokaryotic (16S) rRNA and eukaryotic (18S) rRNA A-site were synthesized in house and precipitated twice from 1 M ammonium acetate following deprotection with ammonia (pH 8.5). The mass-tagged constructs contained an 18-atom mass tag (C12H2509) attached to the 5′-terminus of the RNA oligomer through a phosphodiester linkage.
All mass spectrometry experiments were performed using an Apex II 70e electrospray ionization Fourier transform ion cyclotron resonance mass spectrometer (Bruker Daltonics, Billerica) employing an actively shielded 7 tesla superconducting magnet. […]
(§1) Mass spectrometry experiments were performed in order to detect complex formation between a library containing five aminoglycosides (Sisomicin (Sis), Tobramycin (Tob), Bekanomycin (Bek), Paromomycin (PM), and Livodomycin (LV)) and two RNA targets simultaneously. Signals from the (M-5H+)^5− charge states of free 16S and 18S RNAs are detected at m/z 1801.515 and 1868.338, respectively. […]

For assay [1], the target named is 27-mer model RNA sequence of the 16S A-site. The experiment in a line: MASS mass spectrometry binding assay with 16S A-site 27-mer RNA. The arrangement: species or system prokaryotic. The protocol: The compounds are screened for binding affinity using MASS or conventional high-throughput functional screens. The best scoring compounds from docking a 256-member library against the 16S A-site ribosomal RNA structure are shown in the table 5 below. The MASS assay was performed with the 27-mer model RNA sequence of the 16S A-site whose NMR structure has been determined. The transcription/translation assay was based on expression of a luciferase plasmid.
A preferred first step of MASS screening involves mixing the RNA target (or targets) with a combinatorial library of ligands designed to bind to a specific site on the target molecule(s). Specific noncovalent complexes formed in solution between the target(s) and any library members are transferred into the gas phase and ionized by ESI. As described herein, from the measured mass difference between the complex and the free target, the identity of the binding ligand can be determined. The dissociation constant of the complex can be determined in two ways: if a ligand with a known binding affinity for the target is available, a relative Kd can be measured by using the known ligand as an internal control and measuring the abundance of the unknown complex to the abundance of the control, alternatively, if no internal control is available, Kd's can be determined by making a series of measurements at different ligand concentrations and deriving a Kd value from the “titration” curve.
In a direct determination of solution phase dissociation constants (Kd's) by mass spectrometry, ESI-MS measurements of a solution containing a fixed concentration of RNA at different concentrations of ligand were obtained. By measuring the ratio of bound:unbound RNA at varying ligand concentrations, the Kd was determined by 1/slope of the “titration curve”. The MS derived value of 110 nM is in good agreement with previously reported literature value of 200 nM.
All mass spectrometry experiments were performed using an Apex II 70e electrospray ionization Fourier transform ion cyclotron resonance mass spectrometer (Bruker Daltonics, Billerica) employing an actively shielded 7 tesla superconducting magnet. RNA solutions were prepared in 50 mM NH4OAc (pH 7), mixed 1:1 v:v with isopropanol to aid desolvation, and infused at a rate of […] using a syringe pump. Ions were formed in a modified electrospray source (Analytica, Branford) employing an off axis, grounded electrospray probe positioned ca. 1.5 cm from the metalized terminus of the glass desolvation capillary biased at 5000 V. A counter-current flow of dry […] gas heated to 225C was employed to assist in the desolvation process. Ions were accumulated in an external ion reservoir comprised of an RF-only hexapole, a skimmer cone, and an auxiliary electrode for 1000 ms prior to transfer into the trapped ion cell for mass analysis. Each spectrum was the result of the coaddition of 16 transients comprised of […] acquired over a 90,909 kHz bandwidth resulting in a 700 ms detection interval. All aspects of pulse sequence control, data acquisition, and post acquisition processing were performed using a Bruker Daltonics datastation running XMASS version 4.0 on a Silicon Graphics (San Jose, Calif.) R5000 computer.
as §1, with “respectively. The mass spectrometric assay reproduces the known solution binding properties of aminoglycosides to the 16S A site model and an 18S A site model with a neutral mass linker. Consistent with the higher binding affinity of theses aminoglycosides for the 16S A-site relative to the 18S A-site, aminoglycoside complexes are observed only with the 16S rRNA target.” for “respectively.”

Like-named read-outs stand apart in the source and are kept apart here.

Regarding `NC[C@@H]1O[C@H](O[C@H]2[C@@H](O)[C@H](O[C@@H]3[C@@H](O)[C@H](N)C[C@H](N)[C@H]3O[C@H]3O[C@H](CO)[C@@H](O)[C@H](O)[C@H]3N)O[C@@H]2CO)[C@H](N)[C@@H](O)[C@@H]1O` [Paromomycin], the “complexes with the 18S A site model” value with 18S A site model is “absence”. Also, the Kd was 110 nM in assay [1] (16S A site 27mer, ESI-MS titration, read-out: KD measured by mass spectrometry); 500 nM in assay [1] (27-mer model RNA of the 16S A-site, unit printed only in the Paromomycin cell and b169, read-out: MASS KD). The “complexes detected with the 16S A site 27mer RNA” value in assay [1] (ESI-FTICR, mixture of five aminoglycosides, 16S and 18S targets simultaneously) was “High affinity complexes”.

Values taken from US20030083483A1, “Molecular interaction sites of vimentin RNA and methods of modulating the same” (priority 1999, published 2003).
